Data on 1 molecule can be found in PubChem BioAssay AID508.

Molecules are shown by their SMILES.

This test addresses S-adenosylmethionine synthase isoform type-2 (Homo sapiens) (UniProt P31153). Put plainly: PubChem AID 508. Particulars: recombinant MAT2A, DSF SYPRO orange Tm shift; at 10 µM; protein 2 µM; buffer 25 mM HEPES; pH 7.5; 75mM NaCl; 100uM ATPgammaS; Adenosine 5'-[gamma-thio]triphosphate tetralithium salt; stronger effect = higher value.

S-adenosylmethionine synthase isoform type-2 (Homo sapiens), sequence (P31153 whole entry, looked up, canonical isoform): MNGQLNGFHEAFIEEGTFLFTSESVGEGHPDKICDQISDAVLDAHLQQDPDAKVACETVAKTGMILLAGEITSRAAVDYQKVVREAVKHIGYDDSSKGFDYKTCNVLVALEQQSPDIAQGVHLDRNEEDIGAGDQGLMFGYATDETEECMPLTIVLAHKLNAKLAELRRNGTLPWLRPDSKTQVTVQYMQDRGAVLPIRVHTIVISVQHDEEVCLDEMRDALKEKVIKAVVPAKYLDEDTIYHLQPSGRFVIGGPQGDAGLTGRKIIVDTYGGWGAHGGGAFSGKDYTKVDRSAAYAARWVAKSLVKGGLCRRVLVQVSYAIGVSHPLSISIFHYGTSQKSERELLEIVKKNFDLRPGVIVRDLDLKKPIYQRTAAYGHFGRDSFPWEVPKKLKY

For `CSCCC(N)C(=O)O` (stereo unspecified), the Tm shift was 2.1 Celsius.
